From patent US20040077664A1, “Pharmaceutical formulation comprising pyrazolo[4,3-d]pyrimidine and nitrates or thienopyrimidines and nitrates” (priority 2001, published 2004)
Structures can show the parent of a compound that is named as a salt.

Structure (SMILES) | melting point [°C]
COc1ccc(CNc2nc(CCC(=O)O)nc3sc4c(c23)CCCC4)cc1Cl (as salt: salt) [Example 2 (formula I-I), 3-[4-(3-chloro-4-methoxybenzylamino)-5,6,7,8-tetrahydro-[1]-benzothieno[2,3-d]pyrimidin-2-yl]propionic acid] | 135
CCCc1nn(C)c2c(NCc3ccc(OC)c(Cl)c3)nc(CCC(=O)O)nc12 [Example 2 (formula I), 3-[7-(3-chloro-4-methoxybenzylamino)-1-methyl-3-propyl-1H-pyrazolo-[4,3-d]pyrimidin-5-yl]propionic acid] | 178
COc1ccc(CNc2nc(CCC(=O)O)nc3sc4c(c23)CCCC4)cc1Cl [Example 2 (formula I-I), 3-[4-(3-chloro-4-methoxybenzylamino)-5,6,7,8-tetrahydro-[1]-benzothieno[2,3-d]pyrimidin-2-yl]propionic acid] | 229
COc1ccc(CNc2nc(CCC(=O)O)nc3sc4ccccc4c23)cc1Cl [Example 2 (formula I-II), 3-[4-(3-chloro-4-methoxybenzylamino)benzothieno[2,3-d]pyrimidin-2-yl]propionic acid] | 218
COC(=O)c1ccc(-c2nc(NCc3ccc(OC)c(Cl)c3)c3c(n2)sc2ccccc23)cc1 [Example 3 (formula I-II), methyl 4-[4-(3-chloro-4-methoxybenzylamino)-[1]-benzothieno[2,3-d]pyrimidin-2-yl]benzoate] | 203 to 204
